Patent publication US10869931B2, “Polyethylene glycol-modified angiogenesis inhibitor HM-1 and application thereof” (NANJING ANJI BIOLOGICAL TECHNOLOGY CO.,LTD, priority 2016, dated 2020)
Marks after values point to notes of the source that are not given here. Where no end group is shown, it is not given here.

Tests used:
[1] = test system: collagen induced arthritis (CIA) in DBA/1 mice; assay: Collagen-induced mouse arthritis (CIA) model; type: in vivo; details: 20 mg/kg subcutaneous from day 30 of modeling, CIA DBA/1 mice; for Clinical score: maximum score 16
[2] = test system: carrageenan-induced toe swelling in SD rats; assay: Carrageenan-induced acute toe swelling in rats; type: in vivo, rat; design: Swelling: unit not given here
Procedure: SD rats were divided into blank model group, dexamethasone-positive group (5 mg/kg) and mPEG-HM-1 test group. The drug was administered once a day, and the model group was given the same volume of normal saline for 3 days and fed normally. At the first hour after the last administration, 0.1 mL of 1% carrageenan was injected subcutaneously into the right hind paw of the rats to induce inflammation. The volume of the foot was measured at 1 h, 3 h, 5 h, and 7 h after inflammation. The degree of swelling of the foot was calculated according to the following formula: the degree of swelling of the foot (mL)=the volume of the foot after inflammation−the volume before inflammation. Record the number of milliliters of spilled liquid (method: use the ballpoint pen to circle as the measurement mark at the protruding point of the right joint, and then put the right hind foot of each mouse into the volume measuring device, so that the hind limb is exposed outside the cylinder, and the depth of the immersion was determined by coinciding the circle with the liquid surface. After the foot enters the liquid, the liquid level rises, and the volume of the overflow liquid is the volume of the right hind foot of the rat, and the normal volume of the right hind foot of each mouse is sequentially determined).

[3] = test system: Colorectal cancer tumor cells; assay: MTT proliferation inhibition, colorectal cancer cells; type: cell-based, human; design: concentration or dose not given beside the values; details: 48 h
How it was run: (§1)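 Tumour cells plated at 2×10^4 cells/mL, attached overnight, then exposed to dilutions of mPEG-HM-1 for 48 h at 37 °C, 5% CO2. MTT added 4 h, formazan dissolved in DMSO, absorbance 570/630 nm; growth inhibition = 1 − treated/untreated, three independent repeats, mean±SD.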

[4] = test system: retinal neovascular clusters in OIR C57/B16 mice; assay: Retinal blood vessels in OIR mice; type: in vivo, mouse; details: for Neovascular clusters area: 50 μg intravitreal injection on day 13, retina evaluated on day 17; for Inhibition rate: 50 μg intravitreal, neovascular clusters area vs control, day 17; for inhibition rate of retinal neovascular clusters: OIR mice, 50 μg intravitreal injection, evaluated day 17
From the text: Establishment of the OIR model: Exposure of young mouse and their mothers to 75% hyperoxic environment from day 7 to day 12 after birth of C57/B16 mice caused rapid disappearance of capillaries in the central retina. Upon returning to the indoor air on the 12th day, the retinal blood vessels, upon exposing to hyperoxia, rapidly disappeared, causing extensive abnormal neovascularization, and the central portion of the retina remained largely avascular for a long time. After the blood vessels disappeared completely, on the 13th day, physiological saline (negative control group), mPEG-SC-HM-1, mPEG2-NHS-HM-1, mPEG-ALD10k-HM-1, and mPEG-bALD-HM-1, were administered by intravitreal injection and retinal vessels were evaluated on day 17 (to label unclosed vessels, […] of Texas Red-labeled tomato lectin was injected into the left ventricle and circulated for 5 min).

[5] = test system: choroidal neovascularization in BN rats; assay: Laser-induced choroidal neovascularization in BN rats (FFA); type: in vivo, rat; details: for incidence of CNV: BN rats, 28 days after administration, intravitreal once daily for 1 week; for CNV Incidence rate / leakage Spots #: 50 μg intravitreally once daily for 1 week (Table 53)
Procedure: 6-8 weeks old male BN rats were anesthetized with 846 compound anesthetic 0.5 mL/kg administered intraperitoneally. The eye drops of compound tropamide eyes were used 5 minutes before laser photocoagulation, and the pupils of both eyes were fully scattered. Fix animals, with the aid of −53.00 D contact lens, around the optic disc and along the same distance from the optic disc 2PD, the laser beam photocoagulation were performed to make a total of 8 photo-condensation spots, with laser wavelength of 647.1 nm, power of 350 mW, photocoagulation spot diameter and time were 50 μm and 0.05 s, respectively. Immediately after photocoagulation, fundus photography was performed. FFA, histopathology and transmission electron microscopy were performed at 3, 7, 14, 21, and 28 days after photocoagulation.
It was confirmed by fundus photography and FFA examination that the fluorescein leakage of photocoagulation peaked on the 21st day after photocoagulation, and histopathological examination was performed at the same time. […] A large number of neovascular vessels were seen, and red blood cells were visible in the lumen. Microscopically, capillary cells in the choroidal melanocytes were cohesively altered and endothelial cells aggregated.
Rats that were successfully modeled were randomly divided into groups of 5 rats each. They were labeled as negative control group, mPEG-SC-HM-1 treatment group, mPEG2-NHS-HM-1 treatment group, mPEG-ALD-HM-1 treatment group and mPEG-bALD-HM-1 treatment group, respectively. Saline, mPEG-HM-1 (see Table 53 for dosing) was administered intravitreally, once daily for 1 week. FFA examinations were performed 3 days, 7 days, 14 days, and 28 days after administration of the modified peptides.

[6] = test system: Esophageal cancer tumor cells; assay: MTT proliferation inhibition, esophageal cancer cells; type: cell-based, human; design: concentration or dose not given beside the values; details: 48 h
How it was run: as §1

[7] = 20 mg/kg once a day for 3 days, 1 h after carrageenan
[8] = 20 mg/kg once a day for 3 days, 3 h after carrageenan
[9] = 20 mg/kg once a day for 3 days, 5 h after carrageenan
[10] = 20 mg/kg once a day for 3 days, 7 h after carrageenan
[11] = 40 mg/kg once a day for 3 days, 1 h after carrageenan
[12] = 40 mg/kg once a day for 3 days, 3 h after carrageenan
[13] = 40 mg/kg once a day for 3 days, 5 h after carrageenan
[14] = 40 mg/kg once a day for 3 days, 7 h after carrageenan
[15] = Day 3 after administration, total spots 290-296 by table
[16] = Day 7, total spots 182-188 by table
[17] = Day 14, total spots 132-138 by table
[18] = Day 28, total spots 67-71 by table

Substance | Joint swelling [1] [mm] | Left and right paw swelling [1] [mm] | Clinical score [1] | Swelling [2, 7] | Swelling [2, 8] | Swelling [2, 9] | Swelling [2, 10] | Swelling [2, 11] | Swelling [2, 12] | Swelling [2, 13] | Swelling [2, 14] | rate of growth inhibition [3] [%] | Neovascular clusters area [4] [mm^2] | Inhibition rate [4] [%**] | inhibition rate of retinal neovascular clusters [4] [%] | incidence of CNV [5] [%] | CNV Incidence rate ([5]; Day 3 after administration) [%] | leakage Spots # [5, 15] | CNV Incidence rate ([5]; Day 7) [%] | leakage Spots # [5, 16] | other results
mPEG-SC10k-Arg-Gly-Ala-Asp-Arg-Ala-Gly-Gly-Gly-Gly-Arg-Gly-Asp ({mPEG‑SC 10 kDa}-RGADRAGGGGRGD) [mPEG-SC10k-HM-1] | 0.79 ± 0.13 | 0.77 ± 0.12 | 9.06 ± 1.24 | 0.25 ± 0.11 | 0.38 ± 0.15 | 0.43 ± 0.17 | 0.31 ± 0.11 | 0.22 ± 0.09 | 0.32 ± 0.19 | 0.37 ± 0.12 | 0.34 ± 0.13 | 61.35 ± 16.88 | 0.096 ± 0.008 | 56.56 | 56.56 | 38.81 | 49.66 | 147 | 45.74 | 86 | CNV Incidence rate ([5]; Day 14): 42.96%; leakage Spots # [5, 17]: 58; CNV Incidence rate ([5]; Day 28): 38.81%; leakage Spots # [5, 18]: 26; rate of growth inhibition [6]: 52.18 ± 10.25%
mPEG2-NHS10k-Arg-Gly-Ala-Asp-Arg-Ala-Gly-Gly-Gly-Gly-Arg-Gly-Asp ({mPEG2‑NHS 10 kDa}-RGADRAGGGGRGD) [mPEG2-NHS10k-HM-1] | 0.75 ± 0.15 | 0.74 ± 0.14 | 8.83 ± 1.32 | 0.24 ± 0.12 | 0.37 ± 0.16 | 0.42 ± 0.16 | 0.30 ± 0.12 | 0.21 ± 0.10 | 0.31 ± 0.17 | 0.35 ± 0.11 | 0.33 ± 0.15 | 55.78 ± 15.77 | 0.100 ± 0.006 | 54.63 | 54.63 | 39.71 | 50.34 | 148 | 48.35 | 88 | inhibition of carrageenan-induced toe swelling (in words) ([2]; rats, 40 mg/kg, once a day for 3 days): most effective; CNV Incidence rate ([5]; Day 14): 43.07%; leakage Spots # [5, 17]: 59; CNV Incidence rate ([5]; Day 28): 39.71%; leakage Spots # [5, 18]: 27; rate of growth inhibition [6]: 48.12 ± 12.85%
